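Test compounds were applied to cells in 96-well plates for 48 hours at 5 doses. GI50: concentration for 50% inhibition of growth.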 Calls of active or inactive are those of the source. No stated cut-off is given here; in the data, active = GI50 up to about 1.1 µM and inactive = higher.
Columns and labels:
Assay in all cases: NCI-60 cell line screen, 48 h
[1] = tested on: BT-549
[2] = tested on: CAKI-1
[3] = tested on: COLO 205
[4] = tested on: DU-145
[5] = tested on: HCC 2998
[6] = tested on: HCT-15
[7] = tested on: HOP-92
[8] = tested on: HT-29
[9] = tested on: LOX IMVI
[10] = tested on: MOLT-4
[11] = tested on: NCI-H460
[12] = tested on: OVCAR-8
[13] = tested on: PC-3
[14] = tested on: RPMI-8226
[15] = tested on: SK-MEL-2
[16] = tested on: SK-MEL-5
[17] = tested on: SK-OV-3
[18] = tested on: SN12C
[19] = tested on: T47D
[20] = tested on: TK-10

| SMILES | GI50 [1] | GI50 [2] | GI50 [3] | GI50 [4] | GI50 [5] | GI50 [6] | GI50 [7] | GI50 [8] | GI50 [9] | GI50 [10] | GI50 [11] | GI50 [12] | GI50 [13] | GI50 [14] | GI50 [15] | GI50 [16] | GI50 [17] | GI50 [18] | GI50 [19] | GI50 [20] |
| --- | --- | --- | --- | --- | --- | --- | --- | --- | --- | --- | --- | --- | --- | --- | --- | --- | --- | --- | --- | --- |
| CCOC(=O)/C(=C\c1ccccc1)C(=O)CCN1CCOCC1 | 16.7 µM (inactive) | 4.49 µM (inactive) | 3.66 µM (inactive) | 17.2 µM (inactive) | 17.8 µM (inactive) | 3.2 µM | 5.86 µM (inactive) | 6.3 µM (inactive) | 2.8 µM (inactive) | 1.99 µM (inactive) | 14.4 µM (inactive) | 4.06 µM (inactive) | 12.2 µM (inactive) | 2.07 µM (inactive) | 17.8 µM (inactive) | 12.6 µM (inactive) | 23 µM (inactive) | 8.65 µM (inactive) | 16.3 µM (inactive) | 6.5 µM (inactive) |
| COc1ccc(C(C)NNC(=O)c2cc[n+]([BH2-]C#N)cc2)cc1F (stereo not given) | > 100 µM (inactive) | > 100 µM (inactive) | > 100 µM (inactive) | > 100 µM (inactive) | > 100 µM (inactive) | > 100 µM | > 100 µM (inactive) | > 100 µM (inactive) | > 100 µM (inactive) | > 100 µM (inactive) | > 100 µM (inactive) | > 100 µM (inactive) | > 100 µM (inactive) | > 100 µM (inactive) | > 100 µM (inactive) | > 100 µM (inactive) | > 100 µM (inactive) | > 100 µM (inactive) | > 100 µM (inactive) | > 100 µM (inactive) |
| C1CCN2CC34CC(CC5CCCN(C6CCCC3N6)C54)C2C1 (stereo not given) | > 100 µM (inactive) | > 100 µM (inactive) | > 100 µM (inactive) | > 100 µM (inactive) | > 100 µM (inactive) | > 100 µM | > 100 µM (inactive) | > 100 µM (inactive) | > 100 µM (inactive) | > 100 µM (inactive) | > 100 µM (inactive) | > 100 µM (inactive) | > 100 µM (inactive) | > 100 µM (inactive) | > 100 µM (inactive) | > 100 µM (inactive) | > 100 µM (inactive) | > 100 µM (inactive) | > 100 µM (inactive) | > 100 µM (inactive) |
| O=C1Nc2cc([N+](=O)[O-])ccc2C(=O)N2CCC[C@@H]12 | > 100 µM (inactive) | > 100 µM (inactive) | > 100 µM (inactive) | > 100 µM (inactive) | > 100 µM (inactive) | > 100 µM | > 100 µM (inactive) | > 100 µM (inactive) | > 100 µM (inactive) | > 100 µM (inactive) | > 100 µM (inactive) | > 100 µM (inactive) | > 100 µM (inactive) | > 100 µM (inactive) | > 100 µM (inactive) | > 100 µM (inactive) | > 100 µM (inactive) | > 100 µM (inactive) | > 100 µM (inactive) | > 100 µM (inactive) |
| Cc1cc(=O)oc2cc3oc(N(C)c4ccccc4)nc(=O)c3cc12 | 50.2 µM (inactive) | > 100 µM (inactive) | > 100 µM (inactive) | > 100 µM (inactive) | > 100 µM (inactive) | > 100 µM | 22.7 µM (inactive) | > 100 µM (inactive) | > 100 µM (inactive) | > 100 µM (inactive) | > 100 µM (inactive) | 42.4 µM (inactive) | > 100 µM (inactive) | > 100 µM (inactive) | > 100 µM (inactive) | > 100 µM (inactive) | > 100 µM (inactive) | > 100 µM (inactive) | > 100 µM (inactive) | > 100 µM (inactive) |
| CC(C(=O)O)/C(=C\c1ccc2c(c1)OCO2)C(=O)O (stereo not given) | > 100 µM (inactive) | > 100 µM (inactive) | > 100 µM (inactive) | > 100 µM (inactive) | > 100 µM (inactive) | > 100 µM | > 100 µM (inactive) | > 61.5 µM (inactive) | > 100 µM (inactive) | > 6.89 µM (inactive) | > 100 µM (inactive) | > 100 µM (inactive) | > 100 µM (inactive) | > 100 µM (inactive) | > 100 µM (inactive) | > 100 µM (inactive) | > 100 µM (inactive) | > 100 µM (inactive) | > 100 µM (inactive) | > 100 µM (inactive) |
| CC(C)CCCC(C)[C@H]1CC[C@H]2NCCCC[C@]12C (stereo not given in full) | 9.38 µM (inactive) | 7.05 µM (inactive) | 1.73 µM (inactive) | 5.56 µM (inactive) | 1.37 µM (inactive) | 2.43 µM | 3.48 µM (inactive) | 2.34 µM (inactive) | 1.85 µM (inactive) | 2.28 µM (inactive) | 2.02 µM (inactive) | 3.03 µM (inactive) | 3.07 µM (inactive) | 1.92 µM (inactive) | 2.88 µM (inactive) | 1.6 µM (inactive) | 14.3 µM (inactive) | 6.24 µM (inactive) | 2.77 µM (inactive) | 4.28 µM (inactive) |
| CCOc1cc(/C=N/c2ccc(Oc3ccc(Cl)cc3)c(Cl)c2)ccc1O | 17.8 µM (inactive) | 19.8 µM (inactive) | 17.5 µM (inactive) | 50.5 µM (inactive) | 19.3 µM (inactive) | 22.5 µM | 19.7 µM (inactive) | 20.8 µM (inactive) | 19.8 µM (inactive) | 18.7 µM (inactive) | 18.6 µM (inactive) | 23 µM (inactive) | 31.8 µM (inactive) | 29.7 µM (inactive) | 24.5 µM (inactive) | 22.3 µM (inactive) | 26.1 µM (inactive) | 20.8 µM (inactive) | 36.3 µM (inactive) | 43.1 µM (inactive) |
| CCN(CC)CCO/N=C1/C=C2CCC3C(CC[C@@]4(C)C3CC[C@]4(C)O)[C@@]2(C)CC1 (stereo not given in full) | 11.7 µM (inactive) | 4.52 µM (inactive) | 4.16 µM (inactive) | 6.37 µM (inactive) | 5.22 µM (inactive) | 2.29 µM | 4.9 µM (inactive) | 1.82 µM (inactive) | 4.1 µM (inactive) | 1.91 µM (inactive) | 3.41 µM (inactive) | 5.21 µM (inactive) | 4.6 µM (inactive) | 4.28 µM (inactive) | 11.2 µM (inactive) | 12.5 µM (inactive) | 14.3 µM (inactive) | 4.15 µM (inactive) | 7.59 µM (inactive) | 15.2 µM (inactive) |
| COc1cc(C2c3cc4c(cc3OC(C)(N3CCCC3)C2C)OCO4)cc(OC)c1OC (stereo not given) | 0.232 µM (active) | 1.09 µM (active) | 0.22 µM (active) | 0.327 µM (active) | 0.389 µM (active) | 0.472 µM | 2.19 µM (inactive) | 0.293 µM (active) | 0.452 µM (active) | 0.3 µM (active) | 0.473 µM (active) | 0.472 µM (active) | 0.34 µM (active) | 0.337 µM (active) | 0.405 µM (active) | 0.247 µM (active) | 0.391 µM (active) | 0.446 µM (active) | 74.5 µM (inactive) | 0.524 µM (active) |
| CC(=O)NC(=N/N=C1/C(=O)Nc2ccc(C)cc21)NC(C)=O | > 100 µM (inactive) | > 100 µM (inactive) | > 100 µM (inactive) | > 100 µM (inactive) | > 100 µM (inactive) | > 100 µM | > 100 µM (inactive) | > 100 µM (inactive) | > 100 µM (inactive) | > 100 µM (inactive) | > 100 µM (inactive) | > 100 µM (inactive) | > 100 µM (inactive) | > 100 µM (inactive) | > 100 µM (inactive) | > 100 µM (inactive) | > 100 µM (inactive) | > 100 µM (inactive) | > 100 µM (inactive) | > 100 µM (inactive) |
| COc1cc(OC)c2c(=O)cc(-c3ccccc3F)[nH]c2c1 | > 100 µM (inactive) | 61.5 µM (inactive) | 75.9 µM (inactive) | 76.4 µM (inactive) | 18.6 µM (inactive) | 28.6 µM | > 100 µM (inactive) | 38.2 µM (inactive) | 61.1 µM (inactive) | 66.2 µM (inactive) | 37.9 µM (inactive) | 51.4 µM (inactive) | 47.2 µM (inactive) | 57.8 µM (inactive) | > 100 µM (inactive) | 30.3 µM (inactive) | 91.2 µM (inactive) | > 100 µM (inactive) | 95.1 µM (inactive) | 39.9 µM (inactive) |
| COc1cc(C2c3cc4c(cc3OC(NNc3ccccc3)C2C)OCO4)cc(OC)c1OC (stereo not given) | 1.01 µM (active) | 0.982 µM (active) | 1.46 µM (inactive) | 2.11 µM (inactive) | 0.953 µM (active) | 0.417 µM | 6.43 µM (inactive) | 0.986 µM (active) | 0.706 µM (active) | 1.09 µM (active) | 1.02 µM (active) | 2.81 µM (inactive) | 0.778 µM (active) | 1.43 µM (inactive) | 1.23 µM (inactive) | 1.32 µM (inactive) | 2.08 µM (inactive) | 2.99 µM (inactive) | 2.43 µM (inactive) | 2.48 µM (inactive) |
| COc1cccc(C2c3cc4c(cc3OC(NNC(N)=O)C2C)OCO4)c1OC (stereo not given) | 20.1 µM (inactive) | 24.5 µM (inactive) | 14.7 µM (inactive) | 20.9 µM (inactive) | 32 µM (inactive) | 9.23 µM | 19.1 µM (inactive) | 22.4 µM (inactive) | 19.1 µM (inactive) | 16.5 µM (inactive) | 23.1 µM (inactive) | 4.32 µM (inactive) | 19.4 µM (inactive) | 13 µM (inactive) | 20.5 µM (inactive) | 19.6 µM (inactive) | 34.2 µM (inactive) | 27 µM (inactive) | 27.1 µM (inactive) | 28.9 µM (inactive) |
